Test results reported in PubChem BioAssay AID342 (DTP/NCI, 2004).
Several values for one entry are separate records, joined by “and”; a condition that tells them apart may be missing. Equal values may be shown once.

Tested on: Swiss mice, Sarcoma 180 sc, mean tumor weight T/C
Test: NCI In Vivo Anticancer Drug Screen. Data for tumor model Sarcoma 180 (subcutaneous) in Swiss mice
Details: endpoint: mean tumor weight, higher = larger tumour
Outline: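 Tumor-bearing mice, transplantable tumor; readout survival or tumor size; result = T/C, treated vs vehicle control.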

[1] = dose: 50.0 mg/kg/injection, schedule: Q01DX007 (ip), vehicle: carboxymethylcellulose (CMC)
[2] = dose: 75.0 mg/kg/injection, schedule: Q01DX007 (ip), vehicle: carboxymethylcellulose (CMC)

CC1CCOS(=O)O1 (centres undefined)
T/C (dose: 6.25 mg/kg/injection, schedule: Q01DX007 (ip), vehicle: olive oil, sesame oil, peanut oil): 67 % of control | T/C (dose: 6.25 mg/kg/injection, schedule: Q01DX007 (ip), vehicle: propolene glycol): 62 % of control | T/C (dose: 6.25 mg/kg/injection, schedule: Q01DX007 (oral), vehicle: olive oil, sesame oil, peanut oil): 81 % of control | T/C (dose: 6.25 mg/kg/injection, schedule: Q01DX007 (sc), vehicle: olive oil, sesame oil, peanut oil): 81 % of control | T/C (dose: 12.5 mg/kg/injection, schedule: Q01DX007 (ip), vehicle: olive oil, sesame oil, peanut oil): 85 % of control | T/C (dose: 12.5 mg/kg/injection, schedule: Q01DX007 (ip), vehicle: propolene glycol): 55 % of control | T/C (dose: 12.5 mg/kg/injection, schedule: Q01DX007 (oral), vehicle: olive oil, sesame oil, peanut oil): 106 % of control | T/C (dose: 12.5 mg/kg/injection, schedule: Q01DX007 (oral), vehicle: propolene glycol): 74 % of control | T/C (dose: 12.5 mg/kg/injection, schedule: Q01DX007 (sc), vehicle: olive oil, sesame oil, peanut oil): 97 % of control | T/C (dose: 25.0 mg/kg/injection, schedule: Q01DX007 (ip), vehicle: olive oil, sesame oil, peanut oil): 75 % of control | T/C (dose: 25.0 mg/kg/injection, schedule: Q01DX007 (ip), vehicle: propolene glycol): 62 % of control | T/C (dose: 25.0 mg/kg/injection, schedule: Q01DX007 (oral), vehicle: olive oil, sesame oil, peanut oil): 79 % of control | T/C (dose: 25.0 mg/kg/injection, schedule: Q01DX007 (oral), vehicle: propolene glycol): 80 % of control | T/C (dose: 25.0 mg/kg/injection, schedule: Q01DX007 (sc), vehicle: olive oil, sesame oil, peanut oil): 65 % of control | T/C (dose: 36.0 mg/kg/injection, schedule: Q01DX007 (ip), vehicle: carboxymethylcellulose (CMC)): 102 % of control | T/C (dose: 50.0 mg/kg/injection, schedule: Q01DX007 (ip), vehicle: olive oil, sesame oil, peanut oil): 48 % of control | T/C (dose: 50.0 mg/kg/injection, schedule: Q01DX007 (ip), vehicle: propolene glycol): 56 % of control | T/C (dose: 50.0 mg/kg/injection, schedule: Q01DX007 (oral), vehicle: olive oil, sesame oil, peanut oil): 71 % of control | T/C (dose: 50.0 mg/kg/injection, schedule: Q01DX007 (oral), vehicle: propolene glycol): 81 % of control | T/C (dose: 50.0 mg/kg/injection, schedule: Q01DX007 (sc), vehicle: olive oil, sesame oil, peanut oil): 66 % of control | T/C (dose: 54.0 mg/kg/injection, schedule: Q01DX007 (ip), vehicle: carboxymethylcellulose (CMC)): 84 % of control | T/C (dose: 81.0 mg/kg/injection, schedule: Q01DX007 (ip), vehicle: carboxymethylcellulose (CMC)): 57 % of control

Clc1ccc2c(c1)Cc1cc(N=Cc3ccccc3Cl)ccc1-2
T/C (dose: 42.0 mg/kg/injection, schedule: Q01DX007 (ip), vehicle: other): 77 % of control | T/C (dose: 64.0 mg/kg/injection, schedule: Q01DX007 (ip), vehicle: other): 108 % of control | T/C (dose: 66.0 mg/kg/injection, schedule: Q01DX007 (ip), vehicle: saline): 57 % of control | T/C (dose: 99.0 mg/kg/injection, schedule: Q01DX007 (ip), vehicle: saline): 52 % of control | T/C (dose: 148.0 mg/kg/injection, schedule: Q01DX007 (ip), vehicle: saline): 38 % of control | T/C (dose: 222.0 mg/kg/injection, schedule: Q01DX007 (ip), vehicle: other): 42 % of control and 46 % of control | T/C (dose: 222.0 mg/kg/injection, schedule: Q01DX007 (ip), vehicle: saline): 31 % of control | T/C (dose: 333.0 mg/kg/injection, schedule: Q01DX007 (ip), vehicle: other): 20 % of control and 40 % of control | T/C (dose: 492.0 mg/kg/injection, schedule: Q01DX007 (ip), vehicle: carboxymethylcellulose (CMC)): 40 % of control | T/C (dose: 500.0 mg/kg/injection, schedule: Q01DX007 (ip), vehicle: other): 22 % of control | T/C (dose: 750.0 mg/kg/injection, schedule: Q01DX007 (ip), vehicle: carboxymethylcellulose (CMC)): 31 % of control | T/C (dose: 750.0 mg/kg/injection, schedule: Q01DX007 (ip), vehicle: other): 20 % of control

CC(C)=CCC/C(C)=C/CO
T/C (dose: 7.8 mg/kg/injection, schedule: Q01DX007 (ip), vehicle: saline): 83 % of control | T/C (dose: 15.6 mg/kg/injection, schedule: Q01DX007 (ip), vehicle: saline): 83 % of control | T/C (dose: 31.3 mg/kg/injection, schedule: Q01DX007 (ip), vehicle: saline): 110 % of control | T/C (dose: 62.5 mg/kg/injection, schedule: Q01DX007 (ip), vehicle: saline): 90 % of control

NN1CCCC1
T/C (dose: 33.0 mg/kg/injection, schedule: Q01DX007 (ip), vehicle: carboxymethylcellulose (CMC)): 86 % of control | T/C (dose: 33.0 mg/kg/injection, schedule: Q01DX007 (ip), vehicle: saline): 161 % of control | T/C [1]: 71 % of control | T/C (dose: 50.0 mg/kg/injection, schedule: Q01DX007 (ip), vehicle: saline): 179 % of control | T/C [2]: 20 % of control | T/C (dose: 75.0 mg/kg/injection, schedule: Q01DX007 (ip), vehicle: saline): 86 % of control | T/C (dose: 113.0 mg/kg/injection, schedule: Q01DX007 (ip), vehicle: saline): 70 % of control | T/C (dose: 133.0 mg/kg/injection, schedule: Q01DX007 (ip), vehicle: saline): 55 % of control | T/C (dose: 200.0 mg/kg/injection, schedule: Q01DX007 (ip), vehicle: saline): 36 % of control

NNC(=O)CCC(N)C(=O)O (centres undefined)
T/C (dose: 5.75 mg/kg/injection, schedule: Q#A X014 (ip), vehicle: carboxymethylcellulose (CMC)): 97 % of control | T/C (dose: 11.5 mg/kg/injection, schedule: Q#A X014 (ip), vehicle: carboxymethylcellulose (CMC)): 90 % of control | T/C (dose: 23.0 mg/kg/injection, schedule: Q#A X014 (ip), vehicle: carboxymethylcellulose (CMC)): 118 % of control | T/C (dose: 46.0 mg/kg/injection, schedule: Q#A X014 (ip), vehicle: carboxymethylcellulose (CMC)): 70 % of control

Nc1nc(=S)c2ncn(C3CCCO3)c2[nH]1 (centres undefined)
T/C (dose: 20.0 mg/kg/injection, schedule: Q01DX007 (ip), vehicle: carboxymethylcellulose (CMC)): 43 % of control and 46 % of control | T/C (dose: 45.0 mg/kg/injection, schedule: Q01DX007 (ip), vehicle: carboxymethylcellulose (CMC)): 18 % of control and 38 % of control | T/C (dose: 90.0 mg/kg/injection, schedule: Q01DX007 (ip), vehicle: carboxymethylcellulose (CMC)): 9 % of control

Cc1nnc2ncnc(N)c2n1
T/C [1]: 106 % of control | T/C [2]: 105 % of control

NC(Cc1ccc(N(CCCl)CCCl)cc1)C(=O)O (centres undefined)
T/C (dose: 0.45 mg/kg/injection, schedule: Q#A X014 (ip), vehicle: carboxymethylcellulose (CMC)): 68 % of control | T/C (dose: 0.62 mg/kg/injection, schedule: Q#A X014 (ip), vehicle: carboxymethylcellulose (CMC)): 83 % of control | T/C (dose: 0.81 mg/kg/injection, schedule: Q01DX007 (ip), vehicle: carboxymethylcellulose (CMC)): 81 % of control | T/C (dose: 0.9 mg/kg/injection, schedule: Q#A X014 (ip), vehicle: carboxymethylcellulose (CMC)): 74 % of control | T/C (dose: 1.0 mg/kg/injection, schedule: Q#A X014 (ip), vehicle: methylcellulose (MC)): 80 % of control | T/C (dose: 1.08 mg/kg/injection, schedule: Q#A X014 (ip), vehicle: carboxymethylcellulose (CMC)): 76 % of control | T/C (dose: 1.25 mg/kg/injection, schedule: Q#A X014 (ip), vehicle: carboxymethylcellulose (CMC)): 78 % of control | T/C (dose: 1.62 mg/kg/injection, schedule: Q01DX007 (ip), vehicle: carboxymethylcellulose (CMC)): 78 % of control | T/C (dose: 1.62 mg/kg/injection, schedule: Q#A X014 (ip), vehicle: carboxymethylcellulose (CMC)): 78 % of control | T/C (dose: 1.8 mg/kg/injection, schedule: Q#A X014 (ip), vehicle: carboxymethylcellulose (CMC)): 60 % of control | T/C (dose: 2.0 mg/kg/injection, schedule: Q#A X014 (ip), vehicle: methylcellulose (MC)): 59 % of control | T/C (dose: 2.16 mg/kg/injection, schedule: Q#A X014 (ip), vehicle: carboxymethylcellulose (CMC)): 51 % of control | T/C (dose: 2.5 mg/kg/injection, schedule: Q#A X014 (ip), vehicle: carboxymethylcellulose (CMC)): 47 % of control | T/C (dose: 2.88 mg/kg/injection, schedule: Q01DX007 (ip), vehicle: carboxymethylcellulose (CMC)): 95 % of control | T/C (dose: 3.25 mg/kg/injection, schedule: Q01DX007 (ip), vehicle: carboxymethylcellulose (CMC)): 32 % of control | T/C (dose: 3.25 mg/kg/injection, schedule: Q#A X014 (ip), vehicle: carboxymethylcellulose (CMC)): 34 % of control | T/C (dose: 3.6 mg/kg/injection, schedule: Q01DX007 (ip), vehicle: carboxymethylcellulose (CMC)): 62 % of control | T/C (dose: 3.6 mg/kg/injection, schedule: Q#A X014 (ip), vehicle: carboxymethylcellulose (CMC)): 31 % of control | T/C (dose: 4.0 mg/kg/injection, schedule: Q#A X014 (ip), vehicle: methylcellulose (MC)): 47 % of control | T/C (dose: 4.8 mg/kg/injection, schedule: Q01DX007 (ip), vehicle: carboxymethylcellulose (CMC)): 42 % of control | T/C (dose: 5.0 mg/kg/injection, schedule: Q#A X014 (ip), vehicle: carboxymethylcellulose (CMC)): 7 % of control | T/C (dose: 7.2 mg/kg/injection, schedule: Q01DX007 (ip), vehicle: carboxymethylcellulose (CMC)): 20 % of control | T/C (dose: 8.0 mg/kg/injection, schedule: Q#A X014 (ip), vehicle: methylcellulose (MC)): 14 % of control
